Data from patent US9539323B2, “Methods and compositions for malic enzyme 2 (ME2) as a target for cancer therapy” (Beth Israel Deaconess Medical Center, Inc., priority 2010, dated 2017).

What was measured:
Type in all cases: cell-based, human
K562 cells [1] = assay: Erythroid differentiation assay (glycophorin A, CD10, benzidine hemoglobin staining); settings: for rescue of differentiation mediated by ME2 depletion: supplementation
Description: Erythroid differentiation assay: Induction of surface expression of the erythroid marker glycophorin A and CD10 was determined by indirect immunofluorescence and flow cytometry, as described previously by Hatzivassiliou et al., in Cancer Cell. 8: 311-321 (2005). In brief, K562 cells with or without ME2 knockdown were stained with a mouse FITC-conjugated anti-glycophorin A or CD10 antibody (Dako) at 1:100 dilution in medium plus 10% FCS for 30 min at 4° C. Control cells were stained with FITC-conjugated IgG. Cells expressing hemoglobin were determined by benzidine staining, as previously described by Park et al., in Cell Growth Differ. 12: 481-486 (2001). The benzidine dihydrochloride stock solution contained 0.2% w/v benzidine hydrochloride in 3% acetic acid. Cells (1×10^5) were washed twice in ice-cold PBS. The cell pellets were resuspended in ice-clod PBS. Before staining, 5 μl of 30% H2O2 was added to 1 ml of a stock solution of benzidine solution. The cell suspensions were mixed with the benzidine solution in a 1:1 ratio and counted in a hemocytometer after 30 min. Blue cells were considered to be positive for hemoglobin. The proportion of blue-stained cells was quantified under light microscopy. A total of 500 cells were counted for each sample in triplicate. Shown is the mean±SD of a representative experiment.

K562 cells [2] = assay: Cell death assessed by flow cytometry; settings: 72 h
Description: A: Cells were treated with different concentrations of amino-oxyacetate and expression levels of the erythroid marker glycophorin A (GPA) on the surface of K562 cells were assessed using a mouse FITC-conjugated anti-human glycophorin A antibody. Each histogram is representative of three experiments. B: K562 cells with or without ME2 knockdown were incubated with different concentrations of AOA for 72 h. Cell death was assessed by flow cytometry. Top: pLKO; Bottom: shME2-3. […] C: Cells were treated with different concentrations of malate and expression levels of the erythroid marker glycophorin A on the surface of K562 cells were assessed using a mouse FITC-conjugated anti-human glycophorin A antibody. Each histogram is representative of three experiments.
K562 cells with or without ME2 knockdown were incubated with 0.1 mM AOA plus 2 mM α-KG for 48 h. Cell death was assessed by flow cytometry. A: pLKO K562 cells without any treatment. B: pLKO K562 cells treated with 0.1 mM AOA for 48 h. C: pLKO K562 cells treated with 0.1 mM AOA combined with 2 mM α-KG.

[3] = test system: phospho-ERK1/2, phospho-AKT, GATA-1, vimentin; assay: Western blot of signaling pathways, GATA-1 and vimentin in K562 cells; settings: K562, 10 μM
Description: K562 cells with or without ME2 knockdown were lysed with RIPA lysis buffer (50 mM Tris-HCl, pH 8.0, 150 mM NaCl, 1% Triton X-100, 1 mM EGTA) containing 1 mM PMSF and a protease inhibitor cocktail and subjected to centrifugation at 15,000×g for […] at 4° C. to remove debris. After lysis, equal aliquots of protein lysate were resolved by Western blotting. Western blots were probed with anti-phospho-ERK1/2, anti-ERK1, anti-p-AKT308, anti-AKT472, anti-AKT1/2, anti-GATA-1, anti-vimentin, and anti-β-tubulin. A: Phospho-ERK1/2 activity in ME2 knockdown K562 cells. B: Phospho-AKT detection in ME2 knockdown K562 cells. C: 10 μM PI3K inhibitor, LY294002, inhibits p-AKT activity. D: LY294002 rescue of differentiation in ME2 knockdown K562 cells. E: The effect of LY294002 on the proliferation of K562 cells with (third to sixth bars in graph) or without ME2 (first to second bars in graph) knockdown. F: The expression difference of GATA-1 and vimentin in ME2 knockdown cells. Data are representative of three independent experiments. […] Membranes were washed in PBS plus 0.1% Tween 20 and probed with anti-rabbit or anti-mouse HRP-conjugated secondary antibody (both at 1:10,000 dilution), and proteins were detected using the ECL Plus chemiluminescence detection reagent (Amersham Biosciences).

K562 cells [4] = assay: Proliferation assay (Coulter counter); settings: for rescue of ME2 knockdown cell cycle phenotype (decreased proliferation): supplementation
Description: Proliferation assay: Control and ME2 deficient cell lines were plated in 6-well plate at a density of 1×10^5 cells/well and maintained at 37° C. in a 5% CO2 incubator. After 24, 72, 120 and 168 hours of initial plating, 0.5 ml cells were diluted into 10 ml of Hanks' buffer and counted by Coulter counter.

K562 cells [5] = assay: Determination of cellular reactive oxygen species (CM-H2DCF-DA, MitoSOX); settings: ME2 knockdown K562 cells, 5.0 mM
Description: Determination of cellular reactive oxygen species (ROS): Intracellular ROS production was measured by staining with CM-H2DCFDA. CM-H2DCFDA is a cell-permeant indicator for ROS that is nonfluorescent until removal of the acetate groups by intracellular esterases and oxidation occurs within the cell. The procedure for measuring ROS was carried out as described in Trachootham et al., in Cancer Cell. 10: 241-252 (2006), with minor modifications. Briefly, K562 cells transduced with shRNA lentiviral particles or control vector were selected with puromycin for 2 weeks, […], followed by flow cytometry using a FACSCalibur equipped with CellQuest Pro software. Superoxide radicals (O2^−) were measured separately using the MitoSOX™ reagent according to the manufacturer's protocol (Invitrogen). In brief, cells with or without ME2 knockdown were incubated with 5 μM MitoSOX™ reagent for 10 minutes at 37° C., then washed three times and observed under a fluorescence microscope using the Rhodamine filter and Axiovision software for capturing images (Zeiss, Germany).

SMILES: NOCC(=O)O [AOA, amino-oxyacetate]
- erythroid differentiation (glycophorin staining) (K562 cells [1]; K562, 0.2 to 0.8 mM in medium): could not induce erythroid differentiation
- cell death (K562 cells [2]; K562 with ME2 silenced (shME2-3)): induced leukemia cell death (mainly apoptotic)
- cell death (K562 cells [2]; wild type K562 (pLKO)): induced leukemia cell death (mainly necrotic)

SMILES: O=c1cc(N2CCOCC2)oc2c(-c3ccccc3)cccc12 [LY294002, 2-morpholin-4-yl-8-phenylchromen-4-one]
- p-AKT activity [3]: significantly inhibit p-AKT activity
- differentiation mediated by ME2 silencing (K562 cells [1]; ME2 knockdown K562 cells, 10 μM): rescues the differentiation
- rescue of proliferation inhibition (K562 cells [4]; ME2 knockdown K562 cells): does not rescue proliferation inhibition in ME2 knockdown cells as effectively
- sensitivity of proliferation inhibition to LY294002 (K562 cells [4]; ME2 knockdown vs parental K562 cells): more sensitive

SMILES: CC(=O)N[C@@H](CS)C(=O)O [NAC, N-acetyl cysteine]
- endogenous ROS (K562 cells [5]): completely inhibited
- differentiation induced by ME2 depletion (K562 cells [1]; ME2 knockdown K562 cells, 5.0 mM): without affecting differentiation

SMILES: Nc1ccn([C@@H]2O[C@H](CO)[C@@H](O)[C@H]2O)c(=O)n1 [cytidine]
- rescue of differentiation mediated by ME2 depletion (K562 cells [1]; ME2 knockdown K562 cells): could not rescue the differentiation
- rescue of ME2 knockdown cell cycle phenotype (decreased proliferation) (K562 cells [4]; ME2 knockdown K562 cells): nor were we able to rescue

SMILES: O=C(O)CC(O)C(=O)O (centres unmarked) [malate]
- erythroid differentiation (K562 cells [1]; wild type K562, 0.1 to 10 mM in medium): could not induce erythroid differentiation

SMILES: O=c1ccn([C@@H]2O[C@H](CO)[C@@H](O)[C@H]2O)c(=O)[nH]1 [uridine]
- rescue of differentiation mediated by ME2 depletion (K562 cells [1]; ME2 knockdown K562 cells): could not rescue the differentiation
- rescue of ME2 knockdown cell cycle phenotype (decreased proliferation) (K562 cells [4]; ME2 knockdown K562 cells): nor were we able to rescue
